Our source for the TGI and GI50 values is PubChem BioAssay (NCI).

Test systems include HS 578T breast; MALME-3M melanoma; K-562 leukemia; MDA-MB-231 breast; UACC-62 melanoma; NCI-H522 lung; RPMI-8226 leukemia; SR leukemia; IGROV1 ovarian; SF-295 CNS.
Holding throughout (experiment): growth of human tumour cells (NCI), 48 h

Each structure is given as a SMILES string.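 Assay format: 96-well plates, 48-hour exposure. GI50 is the concentration that inhibits growth by half. TGI marks complete inhibition of growth.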

Turning to `CCOC(=O)C(=[N+]=[N-])C(=O)C[N+]12CCN(CC1)CC2`, the TGI with HS 578T breast, in the test on MALME-3M melanoma, with K-562 leukemia, in the test with MDA-MB-231 breast, in the test with UACC-62 melanoma and in the test on NCI-H522 lung was more than 100 µM each time. The TGI in the test on RPMI-8226 leukemia, in the test on SR leukemia, with IGROV1 ovarian and in the test on SF-295 CNS was more than 100 µM throughout.

Turning to `COc1c2occc2c(OC)c2c(=O)c(S(=O)(=O)NC(=O)Nc3ccc(Cl)cc3)coc12`, the TGI in the test on HS 578T breast, with MALME-3M melanoma, with K-562 leukemia, in the test on MDA-MB-231 breast, in the test on UACC-62 melanoma and in the test on NCI-H522 lung was more than 10 µM throughout. Further, the TGI with RPMI-8226 leukemia, with SR leukemia, in the test on IGROV1 ovarian and with SF-295 CNS was more than 10 µM throughout.

For the compound `CCCC1NC(C#N)(C#N)C(CCC)NC1(C#N)C#N` (stereo not drawn), the TGI in the test with HS 578T breast is 22.6 µM; with MALME-3M melanoma it was more than 100 µM; in the test on K-562 leukemia it was more than 77.6 µM; in the test with MDA-MB-231 breast, more than 89.7 µM; with UACC-62 melanoma, more than 100 µM; with NCI-H522 lung, 1.51 µM. The TGI in the test on RPMI-8226 leukemia is 0.943 µM; in the test on SR leukemia it was 1.49 µM; in the test with IGROV1 ovarian, more than 62.2 µM; in the test on SF-295 CNS, more than 100 µM.

As to `N/C(=N\N=C\c1ccc2c(c1)OCO2)NO`, the TGI in the test with HS 578T breast was more than 100 µM; with MALME-3M melanoma, 86.8 µM; in the test on K-562 leukemia it was 50.7 µM; with MDA-MB-231 breast, more than 100 µM; in the test with UACC-62 melanoma it was 49.2 µM; with NCI-H522 lung, more than 100 µM. For the same compound, the TGI with RPMI-8226 leukemia is 56.9 µM; in the test with SR leukemia it was 31.7 µM; in the test with IGROV1 ovarian, 88.3 µM; with SF-295 CNS, more than 100 µM.

Regarding `Nn1c(Cc2ccc(Cl)cc2)n[nH]c1=O`, the TGI in the test on HS 578T breast, in the test on MALME-3M melanoma, with K-562 leukemia, in the test with MDA-MB-231 breast, with UACC-62 melanoma and in the test with NCI-H522 lung was more than 100 µM in each case. Besides, the TGI in the test on RPMI-8226 leukemia, with SR leukemia, in the test on IGROV1 ovarian and in the test with SF-295 CNS was more than 100 µM in each case.

Consider `CCNC(=S)N/N=C/c1cc(OC)ccc1O`, for which the TGI in the test on HS 578T breast, with MALME-3M melanoma, in the test with K-562 leukemia, with MDA-MB-231 breast, with UACC-62 melanoma and in the test with NCI-H522 lung was more than 100 µM each time. For the same compound, the TGI with SR leukemia, with IGROV1 ovarian and in the test with SF-295 CNS was more than 100 µM in each case.

In the case of `CCSSCS(C)(=O)=O`, the TGI was more than 100 µM with HS 578T breast; more than 100 µM in the test with MALME-3M melanoma; 27.2 µM with K-562 leukemia; more than 100 µM in the test on MDA-MB-231 breast; more than 100 µM in the test on UACC-62 melanoma; 40 µM in the test on NCI-H522 lung. Moreover, the TGI in the test with SR leukemia and in the test on SF-295 CNS was more than 100 µM in each case.

On to `CC1CN=C(Nc2cccc(C(F)(F)F)c2)S1` (stereo not drawn), for which the TGI in the test on HS 578T breast, in the test with MALME-3M melanoma, in the test with K-562 leukemia, with MDA-MB-231 breast, in the test with UACC-62 melanoma and in the test with NCI-H522 lung was more than 100 µM in each case. In addition, the TGI in the test on RPMI-8226 leukemia and in the test with SR leukemia was more than 100 µM throughout.

Regarding `Cc1ccc(S(=O)(=O)NC(=O)NC(Cc2c[nH]c3ccccc23)C(=O)O)cc1` (stereo not drawn), the TGI in the test on HS 578T breast, in the test on MALME-3M melanoma, with K-562 leukemia, in the test on MDA-MB-231 breast, with NCI-H522 lung and in the test with RPMI-8226 leukemia was more than 100 µM throughout. Moreover, the TGI with SR leukemia, with IGROV1 ovarian and in the test with SF-295 CNS was more than 100 µM each time.

For the compound `O=C(CCc1cccc(O)c1)NCCc1cccc(O)c1`, the TGI in the test with HS 578T breast, in the test on MALME-3M melanoma, in the test with K-562 leukemia, in the test with MDA-MB-231 breast, in the test on UACC-62 melanoma and in the test with NCI-H522 lung was more than 100 µM in each case. Also, the TGI in the test on SR leukemia, with IGROV1 ovarian and with SF-295 CNS was more than 100 µM throughout.

Take `Oc1ccc2c(c1)-c1c(c3cc(O)ccc3n1CCN1CCOCC1)CC2`: the TGI in the test with HS 578T breast was more than 100 µM; with K-562 leukemia, 41 µM; in the test with MDA-MB-231 breast, 44.1 µM; in the test on UACC-62 melanoma, 32.9 µM; in the test on NCI-H522 lung, 40.4 µM; in the test with RPMI-8226 leukemia, more than 100 µM. For the same compound, the TGI in the test on SR leukemia is 61.8 µM; in the test on IGROV1 ovarian, more than 100 µM; with SF-295 CNS it was 47.2 µM.

With `Cc1cc(O)c(C(C)C)cc1NC(=O)Nc1cccc2ccccc12`, the TGI in the test with HS 578T breast is 62.6 µM; in the test on MALME-3M melanoma, 40.3 µM; in the test with K-562 leukemia it was more than 100 µM; with MDA-MB-231 breast it was 31.7 µM; in the test on UACC-62 melanoma, 25.9 µM; with NCI-H522 lung, 54.1 µM. Moreover, the TGI was more than 100 µM in the test with SR leukemia, 37.7 µM in the test on IGROV1 ovarian and 28.2 µM in the test on SF-295 CNS.

As to `COC12C=C/C(=C(/C(=O)OCc3ccncn3)C(=O)CCCCCCCCC3(OC)C=C/C(=C(/C(=O)OCc4ccncn4)C(=O)CCCCCCCC1)O3)O2`, the GI50 was 0.402 µM in the test on HS 578T breast; 0.228 µM in the test on MALME-3M melanoma; 0.335 µM in the test with MDA-MB-231 breast; 0.207 µM with NCI-H522 lung; 0.263 µM in the test with RPMI-8226 leukemia; 0.296 µM with SR leukemia. The GI50 is 0.418 µM in the test on IGROV1 ovarian and 0.221 µM in the test on SF-295 CNS. The TGI in the test on HS 578T breast is 5.11 µM; in the test on MALME-3M melanoma, 0.629 µM; with MDA-MB-231 breast, more than 100 µM; with NCI-H522 lung, 0.545 µM; in the test on RPMI-8226 leukemia, 0.995 µM; in the test on SR leukemia it was more than 100 µM. The TGI in the test with IGROV1 ovarian was 4.46 µM; in the test with SF-295 CNS, 0.703 µM.

With `O=C1COC(c2ccccc2O)=NN1CCCN1CCCC1`, the TGI in the test with HS 578T breast, in the test with MALME-3M melanoma, with MDA-MB-231 breast, in the test with UACC-62 melanoma, in the test on NCI-H522 lung and in the test on RPMI-8226 leukemia was more than 100 µM in each case. Moreover, the TGI in the test on SR leukemia, with IGROV1 ovarian and in the test with SF-295 CNS was more than 100 µM each time.

For the compound `CCN1CCN(C(=O)[C@]23CC[C@@H](C)[C@H](C)[C@@H]2C2=CC[C@@H]4[C@@]5(C)C/C(=C/c6cccnc6)C(=O)C(C)(C)[C@@H]5CC[C@@]4(C)[C@]2(C)CC3)CC1`, the GI50 with HS 578T breast was 1.91 µM; with MALME-3M melanoma, 1.4 µM; in the test with K-562 leukemia, 2.63 µM; in the test on MDA-MB-231 breast it was 1.75 µM; with UACC-62 melanoma, 1.51 µM; in the test with RPMI-8226 leukemia, 2.18 µM. The GI50 was 2.38 µM in the test on SR leukemia, 1.89 µM with IGROV1 ovarian and 1.63 µM in the test with SF-295 CNS. Besides, the TGI was 4.77 µM with HS 578T breast; 2.75 µM with MALME-3M melanoma; 7.44 µM with K-562 leukemia; 3.59 µM with MDA-MB-231 breast; 2.96 µM with UACC-62 melanoma; 6.35 µM in the test on RPMI-8226 leukemia. In addition, the TGI came out at 7.09 µM with SR leukemia, 3.87 µM in the test on IGROV1 ovarian and 3.05 µM in the test on SF-295 CNS.

Regarding `CCN(CC)CCCCCCCCNc1c2ccc(Cl)cc2nc2ccc(OC)cc12`, the GI50 was 2.82 µM in the test on HS 578T breast; 0.376 µM in the test with K-562 leukemia; 1.48 µM with MDA-MB-231 breast; 1.8 µM in the test on UACC-62 melanoma; 1.8 µM with NCI-H522 lung; 0.675 µM in the test with RPMI-8226 leukemia. Besides, the results for the GI50 in the test on SR leukemia, with IGROV1 ovarian and in the test on SF-295 CNS were 0.289 µM, 3.44 µM and 1.68 µM, respectively. Besides, the TGI was more than 100 µM with HS 578T breast; 2.23 µM in the test on K-562 leukemia; 3.09 µM with MDA-MB-231 breast; 3.22 µM in the test with UACC-62 melanoma; 3.81 µM in the test with NCI-H522 lung; 3.34 µM with RPMI-8226 leukemia. For the same compound, the figures for the TGI in the test with SR leukemia, in the test on IGROV1 ovarian and in the test with SF-295 CNS were 0.73 µM, 20.5 µM and 3.95 µM, respectively.

Regarding `CN(C(=O)C12C3C4(C(=O)O)C1(C(=O)N(C)C(C)(C)C)C1C2(C(=O)O)C3(C(=O)N(C)C(C)(C)C)C14C(=O)N(C)C(C)(C)C)C(C)(C)C` (stereo not drawn), the TGI in the test on HS 578T breast, in the test on K-562 leukemia, in the test with MDA-MB-231 breast, in the test with UACC-62 melanoma, in the test with NCI-H522 lung and in the test with SR leukemia was more than 100 µM throughout. Besides, the TGI with IGROV1 ovarian and with SF-295 CNS was more than 100 µM each time.

`COc1ccc2oc(S(=O)(=O)N3CC(CCl)c4ccc([N+](=O)[O-])cc43)cc2c1` (stereo not drawn): the TGI in the test on HS 578T breast was more than 100 µM; in the test with MALME-3M melanoma it was 32.8 µM; with K-562 leukemia, 0.285 µM; in the test with MDA-MB-231 breast, 1.23 µM; with UACC-62 melanoma, more than 37.6 µM; in the test with NCI-H522 lung, 0.246 µM. Besides, the TGI was more than 100 µM in the test with RPMI-8226 leukemia, more than 100 µM in the test on SR leukemia and 0.196 µM with SF-295 CNS.

For the compound `CC1(CCCC2(C)CCNC2=O)OCCO1` (stereo not drawn), the TGI with HS 578T breast, in the test on MALME-3M melanoma, in the test on K-562 leukemia, in the test on MDA-MB-231 breast, in the test on UACC-62 melanoma and with RPMI-8226 leukemia was more than 10 µM each time. In addition, the TGI in the test with SR leukemia, in the test with IGROV1 ovarian and in the test on SF-295 CNS was more than 10 µM in each case.
